Where a name gives a salt, the structure may show the parent alone.
Assays:
[1] = system: CHOP and Bip, ER stress markers; assay: Western blotting of ER stress markers in rat cardiomyoblasts under tunicamycin; type: cell-based; details: H9C2 cells, 200 μM KUS121 (FIG. 5)
Experimental: (§1) H9C2 cells, rat cardiomyoblasts, were cultured in Dulbecco's modified Eagle's medium (DMEM) supplemented with 5% fetal bovine serum in the presence of […] tunicamycin (Sigma-Aldrich Co. LLC), which induces ER stress, and 25, 50, 100, or […] KUS121 for 24 hours. The cells were counted by Countess II (Thermo Fisher Scientific). The intracellular ATP levels were measured using “Cell” ATP Assay reagent (TOYO B-Net Co., LTD). The luciferase activities, which indicate ATP levels, were measured with ARVO X3 (PerkinElmer, Inc.).
(§2) The cells cultured as above were subjected to Western blotting. […] After the protein concentrations were measured with BCA protein assay kit (Bio-Rad, 5000006JA), 15 μg of the protein samples were separated in NuPAGE 4-12% Bis-Tris Mini gels (Thermo Fisher Scientific) and transferred to Protran nitrocellulose transfer membrane (Whatman). The membrane was blocked with PBS containing 5% skim milk for 30 minutes, incubated with primary antibodies overnight at 4° C., washed with PBS-0.05% Tween-20 (PBS-T), incubated with secondary antibodies for 1 hour at room temperature, and washed with PBS-T. Pierce Western Blotting Substrate (Thermo Fisher Scientific) or Pierce Western Blotting Substrate plus (Thermo Fisher Scientific) were reacted with the secondary antibodies for producing colors, and the color intensities were measured by LAS-4000 Mini system (Fuji Film). […]

[2] = system: H9C2 cells, rat cardiomyoblasts; assay: Rat cardiomyoblasts under ER stress with tunicamycin: cell number and ATP level; type: cell-based; details: 0.1 pg/mL tunicamycin, 25, 50, 100, or 200 pM KUS121, 24 hours
Experimental: as §1

[3] = system: H9C2 cells, rat cardiomyoblasts; assay: Rat cardiomyoblasts under ER stress by glucose depletion: cell number and ATP level; type: cell-based; details: glucose-free medium, 25, 50, 100, or 200 μM KUS121 (FIG. 6)
Experimental: as §1
Similar experiments were performed using the cells cultured in a glucose-free medium. […] The expressions of CHOP and Bip, ER stress markers, were suppressed in the presence of KUS121.

[4] = system: cardiac ischemia and reperfusion injury model mice; assay: Mouse cardiac ischemia and reperfusion injury model (KUS administration after reperfusion); type: in vivo; details: seven days after surgery
Experimental: Mouse myocardial infarction model was prepared as in Test 5.
First, immediately after the reperfusion KUS121 was administered intravenously at the dose of 80 mg/kg and intraperitoneally at the dose of 80 mg/kg. Subsequently, KUS121 was intraperitoneally administered at the dose of 160 mg/kg every 24 hours for 4 days. Seven days after the surgery, histological analysis was performed as in Test 5 to determine the infarcted area.
Immediately after the reperfusion KUS121 was administered intravenously at the dose of 25 mg/kg and intraperitoneally at the dose of 25 mg/kg. Subsequently, KUS121 was not administered. Seven days after the surgery, histological analysis was performed as in Test 5 to determine the infarcted area.
Immediately after the reperfusion KUS121 was administered intravenously at the dose of 8 mg/kg and intraperitoneally at the dose of 8 mg/kg. Subsequently, KUS121 was not administered. Seven days after the surgery, histological analysis was performed as in Test 5 to determine the infarcted area.

[5] = system: cardiac ischemia and reperfusion injury model mice; assay: Mouse cardiac ischemia and reperfusion injury model (KUS administration prior to ischemia); type: in vivo
Experimental: Eight-week-old C57BL/6J mice were used. Each mouse was anesthetized with intraperitoneally administered pentobarbital (64.8 mg/kg). An endotracheal tube was introduced after the anesthetic induction and positive pressure ventilation was provided.
Each mouse was fixed in a right lateral position, the thoracic cavity was opened through left thoracotomy in the third intercostal space to expose the heart. […] The blockage of the coronary blood flow was confirmed by observing a change in the color of the myocardium. The ischemia was continued for 45 minutes and then reperfusion was induced by removing the PE10 tube. The reperfusion was confirmed by checking restoration of the color of the myocardium. The thoracic cavity was closed with 7-0 prolene sutures and the skin was closed with 4-0 silk sutures. After observing awakening from the anesthesia, the endotracheal tube was removed.
KUS121 dissolved in a physiological saline was injected prior to the ischemia induction. […] First, 2 hours before the reperfusion, i.e., about 1 hour before the start of the ischemia, KUS121 was intraperitoneally administered at the dose of 160 mg/kg. Subsequently, KUS121 was intraperitoneally administered at the dose of 160 mg/kg every 24 hours for 6 days.
Seven days after the surgery, the mice were anesthetized with pentobarbital, perfused with 4% paraformaldehyde (PFA) for fixation, and the hearts were isolated. The isolated hearts were further fixed in 4% PFA overnight. The hearts were embedded in paraffin and sections were prepared. The infarcted regions were evaluated with Masson's trichrome staining. The images were acquired using a microscope (BZ-9000, Keyence) and the infarcted areas were measured using Image J (NIH).
To evaluate the cardiac function, echocardiography (Vevo^(registered trademark) 2100, VISUALSONICS) was performed in the mouse ischemia and reperfusion injury model. […] The left ventricular systolic functions were evaluated by measuring the left ventricular fractional shortening and left ventricular ejection fraction in parasternal short axis views.

[6] = system: cardiac ischemia and reperfusion injury model pigs; assay: Porcine cardiac ischemia and reperfusion injury model (KUS administration after reperfusion); type: in vivo, Yorkshire pig; details: intracoronary injection 0.64, 2.5, or 5.0 mg/kg immediately after reperfusion, seven days after surgery
Experimental: Porcine myocardial infarction model was prepared as in Test 8. The balloon was released 60 minutes after the occlusion, and immediately KUS121 was administered by intracoronary injection at a dose of 0.64, 2.5, or 5.0 mg/kg for 3 minutes. Seven days after the surgery, the infarct size was evaluated by MRI and the infarcted area was determined by histological analysis as in Test 8.

[7] = system: cardiac ischemia and reperfusion injury model pigs; assay: Porcine cardiac ischemia and reperfusion injury model (intravenous and intracoronary administration of KUS); type: in vivo, Yorkshire pig
Experimental: Porcine myocardial infarction model was prepared by inserting a catheter into a Yorkshire pig under general anesthesia and occluding the left coronary artery with a balloon. An infusion solution was prepared by dissolving KUS121 (4 mg/kg) in 250 mL of glucose solution and administered by intravenous infusion that started 45 minutes after the occlusion of the coronary artery and continued for 3 hours. The balloon was released 60 minutes after the occlusion, and 10 mL of the infusion solution was infused intracoronarily.
One week after the occlusion, the infarct size was evaluated by late gadolinium enhanced MRI. […] The cardiac function was evaluated by determining left ventricular ejection fraction, end diastolic volume, end systolic volume, cardiac output, and left ventricular mass by MRI. The left ventricular systolic function was improved by KUS121 administration.
After the MRI, the occluded part of the left coronary artery was occluded again with the balloon catheter and 1% Evans blue was injected to the left and right coronary arteries (60 mL for the left coronary artery and 30 mL for the right coronary artery; non-infarct regions were stained blue). Additionally, 30 mL of 1% TTC solution was injected through the guidewire lumen of the occlusion balloon. Euthanasia was then performed by an intravenous injection of potassium chloride. The heart was isolated and 10-mm thick sections were prepared parallel to the atrioventricular groove. The sections were further immersed in 1% TTC solution for 10 minutes at 37° C. (regions not damaged by myocardial infarction were stained red). All sections were weighed and photographed. They were fixed in 10% formaldehyde and used for subsequent histological analysis. […] No difference was found in the area at risk between the […] group and the KUS group, but administration of KUS decreased the infarcted area per area at risk.

[8] = system: A team mouse heart ischemia and reperfusion injury model; assay: Mouse heart ischemia and reperfusion injury model (ATP visualization mouse); type: in vivo; details: A team mice, 160 mg/kg i.p. 2 hours before reperfusion, 45 minutes ischemia
Excerpt: ATP visualization mouse (A team mouse) generated by Dr. Masamichi Yamamoto (Department of Nephrology, Graduate School of Medicine, Kyoto University) was used. In A team mouse fluorescence resonance energy transfer (FRET) from GFP to OFP occurs depending on the intracellular ATP level. The OFP/GFP ratio is proportional to the ATP level.
Anesthesia was induced in each A team mouse with 4% isoflurane and maintained with 2% isoflurane during surgery. An endotracheal tube was introduced after the anesthetic induction and positive pressure ventilation was provided. The lateral thoracic regions and subcostal margins were incised bilaterally and the thoracic cavity was opened to expose the heart. […] The ischemia was continued for 45 minutes and then reperfusion was induced by removing the PE10 tube. KUS121 was intraperitoneally administered at the dose of 160 mg/kg 2 hours before the reperfusion. For measuring the ATP level, fluorescence was excited at 470/40 and detected at 515/30 for GFP and 575/40 for OFP to acquire images. The OFP/GFP ratios were analyzed using MetaMorph (Molecular Devices). The ATP level during ischemia was decreased in the control group, but maintained in the KUS121 group.

[9] = system: CHOP and Bip, ER stress markers; assay: Western blotting of ER stress markers in rat cardiomyoblasts in glucose-free medium; type: cell-based; details: H9C2 cells, 200 μM KUS121 (FIG. 7)
Experimental: as §1, §2

[10] = intravenous infusion plus intracoronary, histological analysis (Evans blue/TTC)

Cc1cc(F)ccc1-c1ccc(/N=N/c2cc(S(=O)(=O)O)c3ccccc3c2N)cn1 [KUS121, 4-amino-3-[6-(4-fluoro-2-methylphenyl)pyridine-3-ylazo]naphthalene-1-sulfonic acid sodium salt]
expression of Bip [1]: suppressed | expression of CHOP [1]: suppressed | ATP level [2]: increased depending on the dose | cell number [2]: increased depending on the dose | ATP level [3]: increased depending on the dose | cell number [3]: increased depending on the dose | infarcted area (ratio to left ventricle area) ([4]; (1) 160 mg/kg: 80 mg/kg i.v. + 80 mg/kg i.p. immediately after reperfusion, then 160 mg/kg i.p. every 24 hours for 4 days): smaller in the KUS121 group than in the control group | infarcted area (ratio to left ventricle area) ([4]; (2) 50 mg/kg: 25 mg/kg i.v. + 25 mg/kg i.p. immediately after reperfusion only): smaller in the KUS121 group than in the control group | infarcted area (ratio to left ventricle area) ([4]; (3) 16 mg/kg: 8 mg/kg i.v. + 8 mg/kg i.p. immediately after reperfusion only): No significant difference | infarcted area (ratio to left ventricle area) ([5]; 160 mg/kg i.p. 2 hours before reperfusion and every 24 hours for 6 days, seven days after surgery, Masson's trichrome): smaller in the KUS121 group than in the control group | expression of CHOP in the border zone and non-ischemic zone ([5]; 160 mg/kg i.p. prior to ischemia and every 24 hours, Western blotting): suppressed | left ventricular systolic function (fractional shortening, ejection fraction) ([5]; 160 mg/kg i.p. prior to ischemia and every 24 hours, echocardiography): kept well at almost the same level as that in sham-operated group | ratio of infarcted area/left ventricle (LV) area evaluated by MRI [6]: decreased in the KUS121 group in a dose-dependent manner | ratio of infarcted area/AAR ([6]; histological analysis): decreased in the KUS121 group in a dose-dependent manner | ratio of infarcted area/area at risk (AAR) (first mention) ([6]; versus control group): comparable with that of the control group | left ventricular systolic function ([7]; 4 mg/kg intravenous infusion for 3 hours plus intracoronary infusion after reperfusion, MRI one week after occlusion): improved | area at risk relative to the left ventricle [7, 10]: No difference | infarcted area per area at risk [7, 10]: decreased | ATP level during ischemia (OFP/GFP ratio) [8]: maintained | expression of Bip [9]: suppressed | expression of CHOP [9]: suppressed

Reference: US12011438B2, “Composition for protecting cardiomyocyte” (Kyoto University, priority 2018, dated 2024)
